In ChEMBL document CHEMBL3596180, “Evaluation of histone deacetylase inhibitors (HDACi) as therapeutic leads for human African trypanosomiasis (HAT)” (Bioorg Med Chem, 2015):
Each block holds one compound with its values, some of them ahead of it. Active and inactive are the calls of the source. No cut-off for these calls is given here.

Key:
[1] = test system: Trypanosoma brucei brucei; test: Antitrypanosomal activity against Trypanosoma brucei brucei 427 assessed as inhibition of parasite proliferation measured as ATP levels after 48 hrs by luciferase-based assay; format: functional, organism-based; settings: Trypanosoma brucei, 427, 48 h
[2] = Tmax in iv dosed human measured under phase 1 trial; format: ADME, organism-based; settings: in vivo
[3] = Half-life in po dosed human measured under phase 1 trial; format: ADME, organism-based; settings: in vivo
[4] = Half-life in iv dosed human measured under phase 1/2 trial; format: ADME, organism-based; settings: in vivo
[5] = Tmax in iv dosed human measured under phase 1/2 trial; format: ADME, organism-based; settings: in vivo
[6] = Cmax in po dosed human measured under phase 1 trial; format: ADME, organism-based; set-up: route oral; settings: in vivo
[7] = AUC in po dosed human measured under phase 1 trial; format: ADME, organism-based; settings: in vivo
[8] = Cmax in iv dosed human measured under phase 1 trial; format: ADME, organism-based; set-up: route intravenous; settings: in vivo
[9] = test system: Trypanosoma brucei brucei; test: Trypanocidal activity against Trypanosoma brucei brucei assessed as killing of parasite densities of 10^4 to 10^6 cells/ml at 2 uM after […] by clonal dilution method; format: functional, organism-based
[10] = Tmax in po dosed human measured under phase 1 trial; format: ADME, organism-based; settings: in vivo
[11] = AUC in iv dosed human measured under phase 1/2 trial; format: ADME, organism-based; settings: in vivo
[12] = Cmax in iv dosed human measured under phase 1/2 trial; format: ADME, organism-based; set-up: route intravenous; settings: in vivo
[13] = Half-life in iv dosed human measured under phase 1 trial; format: ADME, organism-based; settings: in vivo
[14] = test system: Trypanosoma brucei brucei; test: Trypanocidal activity against Trypanosoma brucei brucei assessed as killing of parasite densities of 10^4 to 10^6 cells/ml at 180 uM after 4 hrs by clonal dilution method; format: functional, organism-based
[15] = AUC in iv dosed human measured under phase 1 trial; format: ADME, organism-based; settings: in vivo

Compound: CC(C)(CCc1ccccc1)C(=O)Nc1ccc(C(=O)NO)cc1
EC50 [1]: 6.55 µM

Compound: O=C(Nc1ccccc1-c1cn2c(CN3CCNCC3)csc2n1)c1cnc2ccccc2n1
EC50 [1]: 0.892 µM

Compound: O=C(/C=C\c1cccc(C(=O)NO)c1)NO
EC50 [1]: 7 µM

Compound: CN(C)Cc1c(C(=O)NCCOc2ccc(C(=O)NO)cc2)oc2ccccc12 [ABEXINOSTAT]
EC50 [1]: 8.61 µM

Compound: O=C(/C=C/c1cccc(S(=O)(=O)Nc2ccccc2)c1)NO [BELINOSTAT]
EC50 [1]: 2.15 µM
EC90 [1]: 4.01 µM
Tmax [2]: 0 h
half-life [3]: 1.5 h
half-life [4]: 3.49 h
Tmax [5]: 0.45 h
Cmax [6]: 2140 nM
AUC [7]: 2700 ng·h/mL
Cmax [8]: 101000 nM
Activity [9]: inactive
Tmax [10]: 1.9 h
AUC [11]: 47500 ng·h/mL
Cmax [12]: 183000 nM
half-life [13]: 0.69 h
Activity [14]: inactive
AUC [15]: 9990 ng·h/mL

Other lines, results leading:

EC50 [1]: 2.6 µM
Tmax [2]: 2 h
Cmax [8]: 2170 nM
half-life [13]: 8.29 h
AUC [15]: 2310 ng·h/mL
Compound: O=C(/C=C/c1ccc(CN(CCO)CCc2c[nH]c3ccccc23)cc1)NO [DACINOSTAT]

EC50 [1]: 10.9 µM
half-life [3]: 6 h
Cmax [6]: 208 nM
AUC [7]: 671 ng·h/mL
Tmax [10]: 2.1 h
Compound: CCN(CC)Cc1ccc2cc(COC(=O)Nc3ccc(C(=O)NO)cc3)ccc2c1 [GIVINOSTAT]

EC50 [1]: 4.06 µM
Compound: O=C(/C=C/C#Cc1ccc(NS(=O)(=O)c2ccccc2)cc1)NO [OXAMFLATIN]
